Laboratory results published in patent US10633379B2, “Bromodomain inhibitors” (AbbVie Inc., priority 2016, dated 2020).

Tests used:
BRD4 (BDI_K57-E168) = BRD4 (BDI_K57-E168) (Homo sapiens (Human), UniProt O60885); experiment: TR-FRET bromodomain binding assay, BRD4 BDI; settings: mean Ki, calculated from IC50, probe Kd and probe concentration
Method in brief: (§1)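 His-tagged BRD4 BDI (12 nM, with 100 nM Alexa647 BET-inhibitor probe) or BDII (4 nM, 30 nM probe), plus 1 nM Eu-anti-His antibody, in pH 6.0 phosphate buffer with 2% DMSO. Equilibrated 1 h at room temperature and read by TR-FRET. IC50 from a 4-parameter fit was converted to Ki using probe Kd and probe concentration.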

BRD4 (BDII_E352-M457) = BRD4 (BDII_E352-M457) (Homo sapiens (Human), UniProt O60885); experiment: TR-FRET bromodomain binding assay, BRD4 BDII; settings: mean Ki, calculated from IC50, probe Kd and probe concentration
Method in brief: as §1

SMILES | Ki (BRD4 (BDI_K57-E168)) [µM] | Ki (BRD4 (BDII_E352-M457)) [µM]
CCNC(=O)c1cc2c(-c3cc(C(C)(C)O)ccc3Oc3c(C)ccc(F)c3C)cn(C)c(=O)c2[nH]1 [Example 104, N-ethyl-4-[2-(3-fluoro-2,6-dimethylphenoxy)-5-(2-hydroxypropan-2-yl)phenyl]-6-methyl-7-oxo-6,7-dihydro-1H-pyrrolo[2,3-c]pyridine-2-carboxamide] | 0.375 | 0.0012
CCNC(=O)c1cc2c(-c3cc(C(C)(O)CC(C)C)ccc3Oc3c(C)cccc3C)cn(C)c(=O)c2[nH]1 (stereo not drawn) [Example 105, 4-[2-(2,6-dimethylphenoxy)-5-(2-hydroxy-4-methylpentan-2-yl)phenyl]-N-ethyl-6-methyl-7-oxo-6,7-dihydro-1H-pyrrolo[2,3-c]pyridine-2-carboxamide] | 1.34 | 0.0025
CCNC(=O)c1cc2c(-c3cc(C(C)(C)O)ccc3Oc3c(C)cc(C(C)(C)O)cc3C)cn(C)c(=O)c2[nH]1 [Example 107, N-ethyl-4-{5-(2-hydroxypropan-2-yl)-2-[4-(2-hydroxypropan-2-yl)-2,6-dimethylphenoxy]phenyl}-6-methyl-7-oxo-6,7-dihydro-1H-pyrrolo[2,3-c]pyridine-2-carboxamide] | 0.231 | 0.0008
Cc1cc(C(C)(C)O)cc(C)c1Oc1ccc(C(C)(C)O)cc1-c1cn(C)c(=O)c2[nH]c(C(=O)NC(C)(C)C)cc12 [Example 108, N-tert-butyl-4-{5-(2-hydroxypropan-2-yl)-2-[4-(2-hydroxypropan-2-yl)-2,6-dimethylphenoxy]phenyl}-6-methyl-7-oxo-6,7-dihydro-1H-pyrrolo[2,3-c]pyridine-2-carboxamide] | 0.175 | 0.0016
CCNC(=O)c1cc2c(-c3cc(C(C)(C)O)cnc3Oc3c(C)ccc(Cl)c3C)cn(C)c(=O)c2[nH]1 [Example 109, 4-[2-(3-chloro-2,6-dimethylphenoxy)-5-(2-hydroxypropan-2-yl)pyridin-3-yl]-N-ethyl-6-methyl-7-oxo-6,7-dihydro-1H-pyrrolo[2,3-c]pyridine-2-carboxamide] | 0.169 | 0.0011
CCNC(=O)c1cc2c(-c3cc(C(C)(C)O)ccc3-c3ccc(OC(F)(F)F)cc3)cn(C)c(=O)c2[nH]1 [Example 110, N-ethyl-4-[4-(2-hydroxypropan-2-yl)-4′-(trifluoromethoxy) [1,1′-biphenyl]-2-yl]-6-methyl-7-oxo-6,7-dihydro-1H-pyrrolo[2,3-c]pyridine-2-carboxamide] | 0.224 | 0.002
CCNC(=O)c1cc2c(-c3cc(C(C)(C)O)ccc3C3=CCC(F)(F)CC3)cn(C)c(=O)c2[nH]1 [Example 111, 4-[4′,4′-difluoro-4-(2-hydroxypropan-2-yl)[2′,3′,4′,5′-tetrahydro[1,1′-biphenyl]]-2-yl]-N-ethyl-6-methyl-7-oxo-6,7-dihydro-1H-pyrrolo[2,3-c]pyridine-2-carboxamide] | 0.15 | 0.0014
Cc1cc(F)cc(C)c1Oc1ccc(C(C)(C)O)cc1-c1cn(C)c(=O)c2[nH]c(C(N)=O)cc12 [Example 112, 4-[2-(4-fluoro-2,6-dimethylphenoxy)-5-(2-hydroxypropan-2-yl)phenyl]-6-methyl-7-oxo-6,7-dihydro-1H-pyrrolo[2,3-c]pyridine-2-carboxamide] | 0.332 | 0.0023
CCNC(=O)c1cc2c(-c3cc(C(C)(C)O)ccc3C3=CCC(C)CC3)cn(C)c(=O)c2[nH]1 (stereo not drawn) [Example 113, N-ethyl-4-[4-(2-hydroxypropan-2-yl)-4′-methyl[2′,3′,4′,5′-tetrahydro[1,1′-biphenyl]]-2-yl]-6-methyl-7-oxo-6,7-dihydro-1H-pyrrolo[2,3-c]pyridine-2-carboxamide] | 0.098 | 0.0015
CCNC(=O)c1cc2c(-c3cc(C(C)(C)O)ccc3C3=CCCC3)cn(C)c(=O)c2[nH]1 [Example 114, 4-[2-(cyclopent-1-en-1-yl)-5-(2-hydroxypropan-2-yl)phenyl]-N-ethyl-6-methyl-7-oxo-6,7-dihydro-1H-pyrrolo[2,3-c]pyridine-2-carboxamide] | 0.096 | 0.0013
CCNC(=O)c1cc2c(-c3cc(C(C)(O)CO)ccc3Oc3c(C)cccc3Cl)cn(C)c(=O)c2[nH]1 (stereo not drawn) [Example 115, 4-[2-(2-chloro-6-methylphenoxy)-5-(1,2-dihydroxypropan-2-yl)phenyl]-N-ethyl-6-methyl-7-oxo-6,7-dihydro-1H-pyrrolo[2,3-c]pyridine-2-carboxamide] | 0.323 | 0.0014
Cc1cccc(Cl)c1Oc1ccc(C(C)(O)CO)cc1-c1cn(C)c(=O)c2[nH]c(C(=O)NC(C)(C)C)cc12 (stereo not drawn) [Example 116, N-tert-butyl-4-[2-(2-chloro-6-methylphenoxy)-5-(1,2-dihydroxypropan-2-yl)phenyl]-6-methyl-7-oxo-6,7-dihydro-1H-pyrrolo[2,3-c]pyridine-2-carboxamide] | 0.756 | 0.0029
Cc1cccc(C)c1Oc1ccc(C(C)(C)O)cc1-c1cn(C)c(=O)c2[nH]c(C(N)=O)cc12 [Example 117, 4-[2-(2,6-dimethylphenoxy)-5-(2-hydroxypropan-2-yl)phenyl]-6-methyl-7-oxo-6,7-dihydro-1H-pyrrolo[2,3-c]pyridine-2-carboxamide] | 0.215 | 0.0015
Cc1cc(F)cc(Cl)c1Oc1ccc(C(C)(O)CO)cc1-c1cn(C)c(=O)c2[nH]c(C(=O)NC(C)(C)C)cc12 (stereo not drawn) [Example 118, N-tert-butyl-4-[2-(2-chloro-4-fluoro-6-methylphenoxy)-5-(1,2-dihydroxypropan-2-yl)phenyl]-6-methyl-7-oxo-6,7-dihydro-1H-pyrrolo[2,3-c]pyridine-2-carboxamide] | 1.39 | 0.0104
CCNC(=O)c1cc2c(-c3cc(C(C)(O)CO)ccc3Oc3c(C)cc(F)cc3Cl)cn(C)c(=O)c2[nH]1 (stereo not drawn) [Example 119, 4-[2-(2-chloro-4-fluoro-6-methylphenoxy)-5-(1,2-dihydroxypropan-2-yl)phenyl]-N-ethyl-6-methyl-7-oxo-6,7-dihydro-1H-pyrrolo[2,3-c]pyridine-2-carboxamide] | 0.346 | 0.0022
CNC(=O)c1cc2c(-c3cc(C(C)(C)O)ccc3Oc3c(C)cc(F)cc3C)cn(C)c(=O)c2[nH]1 [Example 120, 4-[2-(4-fluoro-2,6-dimethylphenoxy)-5-(2-hydroxypropan-2-yl)phenyl]-N,6-dimethyl-7-oxo-6,7-dihydro-1H-pyrrolo[2,3-c]pyridine-2-carboxamide] | 0.161 | 0.0008

Further lines, results first:

Ki (BRD4 (BDI_K57-E168)) [µM] | Ki (BRD4 (BDII_E352-M457)) [µM] | SMILES
0.356 | 0.0006 | Cc1cc(F)cc(C)c1Oc1ccc(C(C)(C)O)cc1-c1cn(C)c(=O)c2[nH]c(C(=O)NC3CC3)cc12 [Example 121, N-cyclopropyl-4-[2-(4-fluoro-2,6-dimethylphenoxy)-5-(2-hydroxypropan-2-yl)phenyl]-6-methyl-7-oxo-6,7-dihydro-1H-pyrrolo[2,3-c]pyridine-2-carboxamide]
0.308 | 0.002 | CCNC(=O)c1cc2c(-c3cc(C4(O)CCC4)ccc3Oc3c(C)cc(F)cc3C)cn(C)c(=O)c2[nH]1 [Example 122, N-ethyl-4-[2-(4-fluoro-2,6-dimethylphenoxy)-5-(1-hydroxycyclobutyl)phenyl]-6-methyl-7-oxo-6,7-dihydro-1H-pyrrolo[2,3-c]pyridine-2-carboxamide]
0.168 | 0.001 | CCNC(=O)c1cc2c(-c3cc(C4(O)COC4)ccc3Oc3c(C)cc(F)cc3C)cn(C)c(=O)c2[nH]1 [Example 123, N-ethyl-4-[2-(4-fluoro-2,6-dimethylphenoxy)-5-(3-hydroxyoxetan-3-yl)phenyl]-6-methyl-7-oxo-6,7-dihydro-1H-pyrrolo[2,3-c]pyridine-2-carboxamide]
0.269 | 0.0017 | CCNC(=O)c1cc2c(-c3cc(C(C)(C)O)cnc3Oc3c(C)cc(C(C)(C)O)cc3C)cn(C)c(=O)c2[nH]1 [Example 124, N-ethyl-4-{5-(2-hydroxypropan-2-yl)-2-[4-(2-hydroxypropan-2-yl)-2,6-dimethylphenoxy]pyridin-3-yl}-6-methyl-7-oxo-6,7-dihydro-1H-pyrrolo[2,3-c]pyridine-2-carboxamide]
0.14 | 0.0035 | Cc1cc(C(C)(C)O)cc(C)c1Oc1ncc(C(C)(C)O)cc1-c1cn(C)c(=O)c2[nH]c(C(=O)NC(C)(C)C)cc12 [Example 125, N-tert-butyl-4-{5-(2-hydroxypropan-2-yl)-2-[4-(2-hydroxypropan-2-yl)-2,6-dimethylphenoxy]pyridin-3-yl}-6-methyl-7-oxo-6,7-dihydro-1H-pyrrolo[2,3-c]pyridine-2-carboxamide]
1.51 | 0.0063 | CCNC(=O)c1cc2c(-c3cc(C(C)(O)CO)ccc3Oc3c(C)cccc3C(F)(F)F)cn(C)c(=O)c2[nH]1 (stereo not drawn) [Example 126, 4-{5-(1,2-dihydroxypropan-2-yl)-2-[2-methyl-6-(trifluoromethyl)phenoxy]phenyl}-N-ethyl-6-methyl-7-oxo-6,7-dihydro-1H-pyrrolo[2,3-c]pyridine-2-carboxamide]
6.58 | 0.0205 | Cc1cccc(C(F)(F)F)c1Oc1ccc(C(C)(O)CO)cc1-c1cn(C)c(=O)c2[nH]c(C(=O)NC(C)(C)C)cc12 (stereo not drawn) [Example 127, N-tert-butyl-4-{5-(1,2-dihydroxypropan-2-yl)-2-[2-methyl-6-(trifluoromethyl)phenoxy]phenyl}-6-methyl-7-oxo-6,7-dihydro-1H-pyrrolo[2,3-c]pyridine-2-carboxamide]
0.469 | 0.0013 | CCNC(=O)c1cc2c(-c3cc(C(C)(O)CCCO)ccc3Oc3c(C)cc(F)cc3C)cn(C)c(=O)c2[nH]1 (stereo not drawn) [Example 128, 4-[5-(2,5-dihydroxypentan-2-yl)-2-(4-fluoro-2,6-dimethylphenoxy)phenyl]-N-ethyl-6-methyl-7-oxo-6,7-dihydro-1H-pyrrolo[2,3-c]pyridine-2-carboxamide]
